Reference: US20100130737A1, “Regulating Agent of GPR34 Receptor Function” (TAKEDA PHARMACEUTICAL COMPANY LIMITED, priority 2005, published 2010)
pIC50: −log10 of the molar value.

Legend:
human GPR34 = human GPR34 (Homo sapiens, UniProt Q9UPC5); test: Human GPR34 antagonist activity indicated by changes in intracellular calcium concentration (FLIPR); assay type: cell-based; set-up: expressed in transfected cells; host or cells: CHO cells (human GPR34CHO line) stably transfected with pCR3.1 human lung Gα16; settings: CHO cells expressing human GPR34/Gα16, against 2 μM lysoPS final concentration, Fluo-3AM
Chain of human GPR34 (Q9UPC5 whole entry): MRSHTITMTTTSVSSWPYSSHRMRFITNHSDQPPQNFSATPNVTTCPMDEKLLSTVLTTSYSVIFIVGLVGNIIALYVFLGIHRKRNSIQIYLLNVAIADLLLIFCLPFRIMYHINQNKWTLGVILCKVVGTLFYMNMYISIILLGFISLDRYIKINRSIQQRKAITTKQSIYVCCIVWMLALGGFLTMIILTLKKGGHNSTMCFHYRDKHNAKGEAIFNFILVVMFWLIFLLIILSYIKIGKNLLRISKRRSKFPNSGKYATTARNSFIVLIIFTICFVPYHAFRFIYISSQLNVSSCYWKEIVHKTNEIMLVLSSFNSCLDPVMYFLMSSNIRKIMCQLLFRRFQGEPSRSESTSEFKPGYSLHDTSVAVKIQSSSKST
Experimental: CHO cells expressing human GPR34/Gα were diluted to 3×10^4/100 μl in cell culture medium [nucleic acid-free Minimum Essential Alpha Medium (Invitrogen) containing 10% dialyzed fetal bovine serum (Invitrogen) 0.5 mg/ml Geneticin (Invitrogen), penicillin and streptomycin (Invitrogen)], dispensed 100 μl per well into a Black walled 96-well plate (Costar), and cultured overnight in a CO2 incubator. Changes in intracellular calcium concentration were measured with a FLIPR (Molecular Device) by the methods described below.
50 μg of Fluo-3AM (Dojindo) was dissolved in 21 μl of DMSO (Dojindo), an equal amount of 20% pluronic acid (Molecular Probes) was added and mixed, and this was added to 10.6 ml of assay buffer [prepared by adding 20 ml of 1 M HEPES (pH 7.4, Dojindo) to HBSS (Invitrogen), and then adding 10 ml of a solution obtained by dissolving 710 mg of Probenecid (Sigma) in 5 ml of 1 N NaOH and then adding and mixing 5 ml of the HBSS/HEPES solution)] with 105 μl of fetal bovine serum added thereto to prepare a fluorescent dye solution. The medium was removed from the cell plate, 100 μl per well of the fluorescent dye solution was immediately poured in, and the cells were cultured for 1 hour in a CO2 incubator to incorporate the fluorescent dye into the cells. After culture, the cells were washed with the aforementioned assay buffer. The compound was dissolved in DMSO (Wako Pure Chemical), diluted with DMSO as necessary, added to the aforementioned assay buffer to the target concentration and poured into the plate. To measure antagonist activity, 8 μM lysophosphatidyl serine (lysoPS, Alexis) solution (2 μM final concentration during reaction) was poured into the plate, which was set in the FLIPR. Following these preliminaries, the agonist effect was measured in the FLIPR by measuring changes in intracellular calcium concentration up to 180 seconds after addition of the sample, and after 200 seconds lysoPS was added and the antagonist effect was measured. In the case of the agonist effect, the EC50 value of the added compound was calculated from the dose reaction curve using changes in fluorescent strength from 0 to 180 seconds after the start of the reaction. In the case of the antagonist effect, the IC50 was calculated from the dose reaction curve using changes in maximum fluorescent strength after 200 to 380 seconds of reaction time. The data was analyzed using “GraphPad PRISM4”.

Structure (SMILES) | melting point | pIC50 (human GPR34)
O=C(N[C@@H](Cc1ccc(OCc2ccccc2)cc1)C(=O)O)c1cn2c(-c3ccc(Cl)cc3)cccc2n1 [Example E9, O-Benzyl-N-{[5-(4-chlorophenyl)imidazo[1,2-a]pyridin-2-yl]carbonyl}tyrosine] | 218 °C | ≥ 6.00
CN(C(=O)c1cn2cc(-c3ccc(Cl)cc3)ccc2n1)[C@@H](Cc1ccc(OCc2ccccc2)cc1)C(=O)O [Example E12, O-Benzyl-N-{[6-(4-chlorophenyl)imidazo[1,2-a]pyridin-2-yl]carbonyl}-N-methyltyrosine] | 216 °C | ≥ 6.00
O=C(N[C@@H](Cc1ccc(OCc2ccccc2)cc1)C(=O)O)c1cc2nccc(-c3ccc(Cl)cc3)n2n1 [Example E16, O-Benzyl-N-{[7-(4-chlorophenyl)pyrazolo[1,5-a]pyrimidin-2-yl]carbonyl}tyrosine] | 102 to 103 °C | ≥ 6.00
O=C(N[C@@H](Cc1ccc(OCc2ccccc2)cc1)C(=O)O)c1cn2cc(-c3ccccc3F)ccc2n1 [Example E19, O-Benzyl-N-{[6-(2-fluorophenyl)imidazo[1,2-a]pyridin-2-yl]carbonyl}tyrosine] | 238 °C | ≥ 6.00
O=C(N[C@@H](Cc1ccc(OCc2ccccc2)cc1)C(=O)O)c1cn2nc(C#Cc3ccccc3)ccc2n1 [Example E22, O-Benzyl-N-{[6-(phenylethynyl)imidazo[1,2-b]pyridazin-2-yl]carbonyl}tyrosine] | 224 to 227 °C | ≥ 6.00
CS(=O)(=O)NC(=O)[C@H](Cc1ccc(OCc2ccccc2)cc1)NC(=O)c1cn2cc(-c3ccc(Cl)cc3)ccc2n1 [Example E23, O-Benzyl-Nα-{[6-(4-chlorophenyl)imidazo[1,2-a]pyridin-2-yl]carbonyl}-N-(methylsulfonyl)tyrosinamide] | 232 °C | ≥ 6.00
O=C(N[C@@H](Cc1ccc(OCc2ccccc2)cc1)C(=O)O)c1cn2cc(-c3ccccc3Cl)ccc2n1 [Example E24, O-Benzyl-N-{[6-(2-chlorophenyl)imidazo[1,2-a]pyridin-2-yl]carbonyl}tyrosine] | 228 °C | ≥ 6.00
O=C(N[C@@H](Cc1ccc(OCc2ccccc2)cc1)C(=O)O)c1ccc2nc(-c3ccc(Cl)cc3)cn2c1 [Example E25, O-Benzyl-N-{[2-(4-chlorophenyl)imidazo[1,2-a]pyridin-6-yl]carbonyl}tyrosine] | 278 to 280 °C | ≥ 6.00
Cc1c(-c2ccc(Cl)cc2)ccc2nc(C(=O)N[C@@H](Cc3ccc(OCc4ccccc4)cc3)C(=O)O)cn12 [Example E26, O-Benzyl-N-{[6-(4-chlorophenyl)-5-methylimidazo[1,2-a]pyridin-2-yl]carbonyl}tyrosine] | 263 to 264 °C | ≥ 6.00
Cc1cc(-c2ccc(Cl)cc2)cn2cc(C(=O)N[C@@H](Cc3ccc(OCc4ccccc4)cc3)C(=O)O)nc12 [Example E27, O-Benzyl-N-{[6-(4-chlorophenyl)-8-methylimidazo[1,2-a]pyridin-2-yl]carbonyl}tyrosine] | 249 to 250 °C | ≥ 6.00
O=C(N[C@@H](Cc1ccc(OCc2ccccc2)cc1)C(=O)O)c1cn2cccc(OCc3ccc(Cl)cc3)c2n1 [Example E28, O-Benzyl-N-({8-[(4-chlorobenzyl)oxy]imidazo[1,2-a]pyridin-2-yl}carbonyl)tyrosine] | 210 °C | ≥ 6.00
O=C(N[C@@H](Cc1ccc(OCc2ccccc2)cc1)C(=O)O)c1cn2nc(/C=C/c3ccc(Cl)cc3)ccc2n1 [Example E29, O-Benzyl-N-({6-[(E)-2-(4-chlorophenyl)ethenyl]imidazo[1,2-b]pyridazin-2-yl}carbonyl)tyrosine] | 256 to 257 °C | ≥ 6.00
O=C(N[C@@H](Cc1ccc(OCc2ccccc2)cc1)C(=O)O)c1nc2ccc(-c3ccc(Cl)cc3)cn2c1Cl [Example E37, O-Benzyl-N-{[3-chloro-6-(4-chlorophenyl)imidazo[1,2-a]pyridin-2-yl]carbonyl}tyrosine] | 242 to 244 °C | ≥ 6.00
O=C(N[C@@H](Cc1ccc(OCc2ccccc2)cc1)C(=O)O)c1cn2cc(/C=C/c3ccc(Cl)cc3)ccc2n1 [Example E41, O-Benzyl-N-({6-[(E)-2-(4-chlorophenyl)ethenyl]imidazo[1,2-a]pyridin-2-yl}carbonyl)tyrosine] | 267 to 270 °C | ≥ 6.00
Cc1ccc(/C=C/c2ccc3nc(C(=O)N[C@@H](Cc4ccc(OCc5ccccc5)cc4)C(=O)O)cn3c2)cc1 [Example E42, O-Benzyl-N-({6-[(E)-2-(4-methylphenyl)ethenyl]imidazo[1,2-a]pyridin-2-yl}carbonyl) tyrosine] | 266 to 267 °C | ≥ 6.00
CC(C)Oc1ccc(-c2ccc3nc(C(=O)N[C@@H](Cc4ccc(OCc5ccccc5)cc4)C(=O)O)cn3c2)cc1 [Example E45, O-Benzyl-N-{[6-(4-isopropoxyphenyl)imidazo[1,2-a]pyridin-2-yl]carbonyl}tyrosine] | 263 °C (dec.) | ≥ 6.00
O=C(N[C@@H](Cc1ccc(OCc2ccccc2F)cc1)C(=O)O)c1cn2ccc(-c3ccc(Cl)cc3)cc2n1 [Example E47, N-{[7-(4-Chlorophenyl)imidazo[1,2-a]pyridin-2-yl]carbonyl}-O-(2-fluorobenzyl)tyrosine] | 250 to 252 °C | ≥ 6.00
O=C(N[C@@H](Cc1ccc(OCc2cccc(F)c2)cc1)C(=O)O)c1cn2ccc(-c3ccc(Cl)cc3)cc2n1 [Example E48, N-{[7-(4-Chlorophenyl)imidazo[1,2-a]pyridin-2-yl]carbonyl}-O-(3-fluorobenzyl)tyrosine] | 248 to 250 °C | ≥ 6.00
O=C(N[C@@H](Cc1ccc(OCc2ccc(F)cc2)cc1)C(=O)O)c1cn2ccc(-c3ccc(Cl)cc3)cc2n1 [Example E49, N-{[7-(4-Chlorophenyl)imidazo[1,2-a]pyridin-2-yl]carbonyl}-O-(4-fluorobenzyl)tyrosine] | 255 to 257 °C | ≥ 6.00
O=C(N[C@@H](Cc1ccc(OCc2ccccc2)cc1)C(=O)O)c1cn2nc(SCc3ccccc3)ccc2n1 [Example E54, O-Benzyl-N-{[6-(benzylthio)imidazo[1,2-b]pyridazine-2-yl]carbonyl}tyrosine] | 178 to 179 °C | ≥ 6.00
N#Cc1ccc(COc2ccc(C[C@H](NC(=O)c3cn4ccc(-c5ccc(Cl)cc5)cc4n3)C(=O)O)cc2)cc1 [Example E64, N-{[7-(4-Chlorophenyl)imidazo[1,2-a]pyridin-2-yl]carbonyl}-O-(4-cyanobenzyl)tyrosine] | 263 °C | ≥ 6.00
